# Patent US20230010375A1, “ANTI-VIRAL COMPOSITION” (priority 2020, published 2023)
# Tested on: COVID-19
# Settings: human, in vivo
smiles,measurement,setting,value
"O=C([O-])O.[Na+] [bicarbonate of soda, sodium bicarbonate]",second swab test (Covid-19),,non-conclusive
same,third swab test (Covid-19),,negative
same,symptoms after the first 2/3rds of a dose,po,no symptoms
